Assay results as given in patent US9169260B2 (MERCK SHARP & DOHME CORP., priority 2011, dated 2015).
pIC50: −log10 of the molar value.

What follows are compounds tested against GST tagged IRAK-4 (Homo sapiens (Human), UniProt Q9NWZ3) (assay: IRAK-4 Kinase Assay (IMAP fluorescence polarization)). Conditions: 100 μM ATP, 30 minutes at 25° C.
Type: biochemical
Method: The kinase activity of IRAK-4 is determined by its ability to catalyze the phosphorylation of a fluorescent polypeptide substrate. The extent of phosphorylation is measured using the IMAP technology (Molecular Devices) where the phosphorylated fluorescent substrate binds to the large M(III)-based nanoparticles which reduces the rotational speed of the substrate and thus increases its fluorescent polarization (FP).
20 μl reaction mixture contains 10 mM TriHCl, pH 7.2, 0.5 nM GST tagged IRAK-4 (SignalChem), 100 nM fluorescent peptide substrate (RP7030, Molecular Devices), 100 μM ATP, 1 mM DTT, 1 mM MgCl2, and 0.01% Tween 20. The reaction is initiated by the addition of ATP. After incubation for 30 minutes at 25° C., 60 μl of Progressive IMAP Reagent (Molecular Devices) is added to stop the reaction. Change in RP7030's FP is determined by a FP reader (Analyst HT, LH, BioSystems).

GST tagged IRAK-4, sequence (Q9NWZ3 whole entry): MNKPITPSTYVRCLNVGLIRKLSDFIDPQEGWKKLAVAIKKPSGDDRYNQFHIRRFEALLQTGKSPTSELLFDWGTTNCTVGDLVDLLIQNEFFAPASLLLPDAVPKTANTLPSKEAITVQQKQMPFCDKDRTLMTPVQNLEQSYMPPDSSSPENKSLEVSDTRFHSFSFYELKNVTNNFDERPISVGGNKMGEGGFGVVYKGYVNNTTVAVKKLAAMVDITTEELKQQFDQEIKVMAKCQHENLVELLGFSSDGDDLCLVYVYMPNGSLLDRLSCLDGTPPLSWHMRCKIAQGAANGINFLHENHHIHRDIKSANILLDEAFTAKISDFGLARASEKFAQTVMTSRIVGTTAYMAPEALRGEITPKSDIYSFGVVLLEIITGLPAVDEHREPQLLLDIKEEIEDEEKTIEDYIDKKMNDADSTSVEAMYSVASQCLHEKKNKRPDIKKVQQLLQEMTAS

SMILES | pIC50
COc1ccc(-n2nc(C3CCN(S(C)(=O)=O)CC3)cc2NC(=O)c2cnn3cccnc23)cc1 [Example 16, N-(1-(4-methoxyphenyl)-3-(1-(methylsulfonyl)piperidin-4-yl)-1H-pyrazol-5-yl)pyrazolo[1,5-a]pyrimidine-3-carboxamide] | > 7.00
Cc1ccc(-n2nc(C3CCN(S(C)(=O)=O)CC3)cc2NC(=O)c2cnn3cccnc23)cc1 [Example 18, N-(3-(1-(methylsulfonyl)piperidin-4-yl)-1-(p-tolyl)-1H-pyrazol-5-yl)pyrazolo[1,5-a]pyrimidine-3-carboxamide] | > 7.00
COc1ccc(-n2nc(C3CCN(S(=O)(=O)C(C)C)CC3)cc2NC(=O)c2cnn3cccnc23)cc1 [Example 23, N-(3-(1-(isopropylsulfonyl)piperidin-4-yl)-1-(4-methoxyphenyl)-1H-pyrazol-5-yl)pyrazolo[1,5-a]pyrimidine-3-carboxamide] | > 7.00
COc1ccc(-n2nc(C3CCN(S(=O)(=O)C4CC4)CC3)cc2NC(=O)c2cnn3cccnc23)cc1 [Example 24, N-(3-(1-(cyclopropylsulfonyl)piperidin-4-yl)-1-(4-methoxyphenyl)-1H-pyrazol-5-yl)pyrazolo[1,5-a]pyrimidine-3-carboxamide] | > 7.00
CNS(=O)(=O)c1ccc(-c2cc(NC(=O)c3cnn4cccnc34)n(-c3ccc(F)cc3F)n2)cc1 [Example 34, N-(1-(2,4-difluorophenyl)-3-(4-(N-methylsulfamoyl)phenyl)-1H-pyrazol-5-yl)pyrazolo[1,5-a]pyrimidine-3-carboxamide] | > 7.00
Cc1ccc(-n2nc(C3CCN(C(C)C)CC3)cc2NC(=O)c2cnn3cccnc23)cc1 [Example 37, N-(3-(1-isopropylpiperidin-4-yl)-1-(p-tolyl)-1H-pyrazol-5-yl)pyrazolo[1,5-a]pyrimidine-3-carboxamide] | > 7.00
Cc1ccc(-n2nc(C3CCN(C4CCC4)CC3)cc2NC(=O)c2cnn3cccnc23)cc1 [Example 38, N-(3-(1-cyclobutylpiperidin-4-yl)-1-(p-tolyl)-1H-pyrazol-5-yl)pyrazolo[1,5-a]pyrimidine-3-carboxamide] | > 7.00
Cc1ccc(-n2nc(C3CCN(C4CC4)CC3)cc2NC(=O)c2cnn3cccnc23)cc1 [Example 40, N-(3-(1-cyclopropylpiperidin-4-yl)-1-(p-tolyl)-1H-pyrazol-5-yl)pyrazolo[1,5-a]pyrimidine-3-carboxamide] | > 7.00
Cc1ccc(-n2nc(C3CCN(CC(F)(F)F)CC3)cc2NC(=O)c2cnn3cccnc23)cc1 [Example 41, N-(1-(p-tolyl)-3-(1-(2,2,2-trifluoroethyl)piperidin-4-yl)-1H-pyrazol-5-yl)pyrazolo[1,5-a]pyrimidine-3-carboxamide] | > 7.00
COc1ccc(-n2nc(C3CCN(C(C)C)CC3)cc2NC(=O)c2cnn3cccnc23)cc1 [Example 47, N-(3-(1-isopropylpiperidin-4-yl)-1-(4-methoxyphenyl)-1H-pyrazol-5-yl)pyrazolo[1,5-a]pyrimidine-3-carboxamide] | > 7.00
O=C(Nc1cc(C2CCN(C3CCC3)CC2)nn1-c1ccc(F)cc1F)c1cnn2cccnc12 [Example 49, N-(3-(1-cyclobutylpiperidin-4-yl)-1-(2,4-difluorophenyl)-1H-pyrazol-5-yl)pyrazolo[1,5-a]pyrimidine-3-carboxamide] | > 7.00

Same assay, conditions: 100 μM ATP, 30 minutes at 25° C.; μM

SMILES | IC50 [µM]
Cc1cccc(-n2nc(C3CCN(S(C)(=O)=O)CC3)cc2NC(=O)c2cnn3cccnc23)c1 [Example 17, N-(3-(1-(methylsulfonyl)piperidin-4-yl)-1-(m-tolyl)-1H-pyrazol-5-yl)pyrazolo[1,5-a]pyrimidine-3-carboxamide] | < 1
Cc1cccc(-n2nc(C3CCN(S(=O)(=O)C4CC4)CC3)cc2NC(=O)c2cnn3cccnc23)c1 [Example 21, N-(3-(1-(cyclopropylsulfonyl)piperidin-4-yl)-1-(m-tolyl)-1H-pyrazol-5-yl)pyrazolo[1,5-a]pyrimidine-3-carboxamide] | < 1
O=C(Nc1cc(C2CCN(S(=O)(=O)C3CC3)CC2)nn1-c1ccc(F)cc1)c1cnn2cccnc12 [Example 22, N-(3-(1-(cyclopropylsulfonyl)piperidin-4-yl)-1-(4-fluorophenyl)-1H-pyrazol-5-yl)pyrazolo[1,5-a]pyrimidine-3-carboxamide] | < 1
Cc1ccc(-n2nc(C3CCN(S(=O)(=O)C4CCCC4)CC3)cc2NC(=O)c2cnn3cccnc23)cc1 [Example 25, N-(3-(1-(cyclopentylsulfonyl)piperidin-4-yl)-1-(p-tolyl)-1H-pyrazol-5-yl)pyrazolo[1,5-a]pyrimidine-3-carboxamide] | < 1
Cc1ccc(-n2nc(C3CCN(S(=O)(=O)C4CC4)CC3)cc2NC(=O)c2cnn3cccnc23)cc1 [Example 26, N-(3-(1-(cyclopropylsulfonyl)piperidin-4-yl)-1-(p-tolyl)-1H-pyrazol-5-yl)pyrazolo[1,5-a]pyrimidine-3-carboxamide] | < 1
O=C(Nc1cc(C2CCN(S(=O)(=O)C3CC3)CC2)nn1-c1ccc(OC(F)(F)F)cc1)c1cnn2cccnc12 [Example 27, N-(3-(1-(cyclopropylsulfonyl)piperidin-4-yl)-1-(4-(trifluoromethoxy)phenyl)-1H-pyrazol-5-yl)pyrazolo[1,5-a]pyrimidine-3-carboxamide] | > 1
CS(=O)(=O)N1CCC(c2cc(NC(=O)c3cnn4cccnc34)n(-c3ccc(F)cc3F)n2)CC1 [Example 28] | < 1
CS(=O)(=O)N1CCC(c2cc(NC(=O)c3cnn4cccnc34)n(-c3ccc(Cl)cc3F)n2)CC1 [Example 29, N-(1-(4-chloro-2-fluorophenyl)-3-(1-(methylsulfonyl)piperidin-4-yl)-1H-pyrazol-5-yl)pyrazolo[1,5-a]pyrimidine-3-carboxamide] | < 1
COc1ccc(-n2nc(C3CCN(S(=O)(=O)C(F)(F)F)CC3)cc2NC(=O)c2cnn3cccnc23)cc1 [Example 30, N-(1-(4-methoxyphenyl)-3-(1-((trifluoromethyl)sulfonyl)piperidin-4-yl)-1H-pyrazol-5-yl)pyrazolo[1,5-a]pyrimidine-3-carboxamide] | > 1
CC(=O)N1CCC(c2cc(NC(=O)c3cnn4cccnc34)n(-c3ccc(C)cc3)n2)CC1 [Example 31, N-(3-(1-acetylpiperidin-4-yl)-1-(p-tolyl)-1H-pyrazol-5-yl)pyrazolo[1,5-a]pyrimidine-3-carboxamide] | < 1
COC(=O)N1CCC(c2cc(NC(=O)c3cnn4cccnc34)n(-c3ccc(OC)cc3)n2)CC1 [Example 32, methyl 4-(1-(4-methoxyphenyl)-5-(pyrazolo[1,5-a]pyrimidine-3-carboxamido)-1H-pyrazol-3-yl)piperidine-1-carboxylate] | < 1
COc1ccc(-n2nc(C3CCN(C(=O)C4CC4)CC3)cc2NC(=O)c2cnn3cccnc23)cc1 [Example 33, N-(3-(1-(cyclopropanecarbonyl)piperidin-4-yl)-1-(4-methoxyphenyl)-1H-pyrazol-5-yl)pyrazolo[1,5-a]pyrimidine-3-carboxamide] | < 1
Cc1ccc(-n2nc(C3CCN(C(N)=O)CC3)cc2NC(=O)c2cnn3cccnc23)cc1 [Example 35, N-(3-(1-carbamoylpiperidin-4-yl)-1-(p-tolyl)-1H-pyrazol-5-yl)pyrazolo[1,5-a]pyrimidine-3-carboxamide] | < 1
Cc1ccc(-n2nc(C3CCN(C)CC3)cc2NC(=O)c2cnn3cccnc23)cc1 [Example 36, N-(3-(1-methylpiperidin-4-yl)-1-(p-tolyl)-1H-pyrazol-5-yl)pyrazolo[1,5-a]pyrimidine-3-carboxamide] | < 1
Cc1ccc(-n2nc(C3CCCNC3)cc2NC(=O)c2cnn3cccnc23)cc1 (centres unmarked) [Example 42, N-(3-(piperidin-3-yl)-1-(p-tolyl)-1H-pyrazol-5-yl)pyrazolo[1,5-a]pyrimidine-3-carboxamide] | < 1
Cc1ccc(-n2nc(C3CCCN(S(C)(=O)=O)C3)cc2NC(=O)c2cnn3cccnc23)cc1 (centres unmarked) [Example 43, N-(3-(1-(methylsulfonyl)piperidin-3-yl)-1-(p-tolyl)-1H-pyrazol-5-yl)pyrazolo[1,5-a]pyrimidine-3-carboxamide] | < 1
Cc1ccc(-n2nc(C3CCCN(S(=O)(=O)C4CC4)C3)cc2NC(=O)c2cnn3cccnc23)cc1 (centres unmarked) [Example 44, N-(3-(1-(cyclopropylsulfonyl)piperidin-3-yl)-1-(p-tolyl)-1H-pyrazol-5-yl)pyrazolo[1,5-a]pyrimidine-3-carboxamide] | < 1
Cc1ccc(-n2nc(CC3CCOCC3)cc2NC(=O)c2cnn3cccnc23)cc1 [Example 45, N-(3-((tetrahydro-2H-pyran-4-yl)methyl)-1-(p-tolyl)-1H-pyrazol-5-yl)pyrazolo[1,5-a]pyrimidine-3-carboxamide] | < 1
Cc1ccc(-n2nc(C3CCOCC3)cc2NC(=O)c2cnn3cccnc23)cc1 [Example 46, N-(3-(tetrahydro-2H-pyran-4-yl)-1-(p-tolyl)-1H-pyrazol-5-yl)pyrazolo[1,5-a]pyrimidine-3-carboxamide] | < 1
CN1CCC(c2cc(NC(=O)c3cnn4cccnc34)n(-c3ccc(F)cc3F)n2)CC1 [Example 48, N-(1-(2,4-difluorophenyl)-3-(1-methylpiperidin-4-yl)-1H-pyrazol-5-yl)pyrazolo[1,5-a]pyrimidine-3-carboxamide] | < 1
CN1CCC(c2cc(NC(=O)c3cnn4cccnc34)n(-c3ccc(Cl)cc3F)n2)CC1 [Example 50, N-(1-(4-chloro-2-fluorophenyl)-3-(1-methylpiperidin-4-yl)-1H-pyrazol-5-yl)pyrazolo[1,5-a]pyrimidine-3-carboxamide] | < 1
